For the assay, the target named is T1, DNA gyrase subunit B (GyrB) (Mycobacteroides abscessus, UniProt B1ME45).
T1 construct: recombinant M. abscessus ATCC 19977 DNA gyrase (A2B2 heterotetramer); with DNA gyrase subunit A (GyrA)
Nature of the assay: DNA supercoiling inhibition assay (relaxed pBR322, agarose gel). The assay is classed as biochemical.

Experimental findings from PMC9487482, “Activity of Tricyclic Pyrrolopyrimidine Gyrase B Inhibitor against Mycobacterium abscessus” (Antimicrobial Agents and Chemotherapy, 2022) are described below.

T1 sequence (B1ME45 entry or part of it): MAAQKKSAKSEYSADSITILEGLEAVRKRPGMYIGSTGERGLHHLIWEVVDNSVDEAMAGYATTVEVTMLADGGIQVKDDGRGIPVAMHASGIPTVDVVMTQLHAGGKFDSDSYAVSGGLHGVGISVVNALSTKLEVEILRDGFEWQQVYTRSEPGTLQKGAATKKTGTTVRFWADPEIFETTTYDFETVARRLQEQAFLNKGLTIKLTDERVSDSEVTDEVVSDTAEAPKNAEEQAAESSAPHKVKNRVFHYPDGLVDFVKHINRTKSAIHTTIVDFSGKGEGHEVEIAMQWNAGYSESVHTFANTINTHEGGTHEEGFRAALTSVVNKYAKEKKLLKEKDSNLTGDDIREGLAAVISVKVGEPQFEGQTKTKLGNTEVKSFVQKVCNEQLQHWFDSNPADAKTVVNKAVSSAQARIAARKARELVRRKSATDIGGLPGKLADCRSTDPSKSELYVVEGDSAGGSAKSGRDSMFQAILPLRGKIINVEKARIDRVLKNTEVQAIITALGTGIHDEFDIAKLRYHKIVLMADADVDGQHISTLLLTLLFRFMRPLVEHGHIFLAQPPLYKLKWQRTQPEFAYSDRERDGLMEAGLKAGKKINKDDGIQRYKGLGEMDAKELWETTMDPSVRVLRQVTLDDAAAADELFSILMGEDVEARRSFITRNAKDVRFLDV
T1 sequence (B1ME58 entry or part of it, further chain): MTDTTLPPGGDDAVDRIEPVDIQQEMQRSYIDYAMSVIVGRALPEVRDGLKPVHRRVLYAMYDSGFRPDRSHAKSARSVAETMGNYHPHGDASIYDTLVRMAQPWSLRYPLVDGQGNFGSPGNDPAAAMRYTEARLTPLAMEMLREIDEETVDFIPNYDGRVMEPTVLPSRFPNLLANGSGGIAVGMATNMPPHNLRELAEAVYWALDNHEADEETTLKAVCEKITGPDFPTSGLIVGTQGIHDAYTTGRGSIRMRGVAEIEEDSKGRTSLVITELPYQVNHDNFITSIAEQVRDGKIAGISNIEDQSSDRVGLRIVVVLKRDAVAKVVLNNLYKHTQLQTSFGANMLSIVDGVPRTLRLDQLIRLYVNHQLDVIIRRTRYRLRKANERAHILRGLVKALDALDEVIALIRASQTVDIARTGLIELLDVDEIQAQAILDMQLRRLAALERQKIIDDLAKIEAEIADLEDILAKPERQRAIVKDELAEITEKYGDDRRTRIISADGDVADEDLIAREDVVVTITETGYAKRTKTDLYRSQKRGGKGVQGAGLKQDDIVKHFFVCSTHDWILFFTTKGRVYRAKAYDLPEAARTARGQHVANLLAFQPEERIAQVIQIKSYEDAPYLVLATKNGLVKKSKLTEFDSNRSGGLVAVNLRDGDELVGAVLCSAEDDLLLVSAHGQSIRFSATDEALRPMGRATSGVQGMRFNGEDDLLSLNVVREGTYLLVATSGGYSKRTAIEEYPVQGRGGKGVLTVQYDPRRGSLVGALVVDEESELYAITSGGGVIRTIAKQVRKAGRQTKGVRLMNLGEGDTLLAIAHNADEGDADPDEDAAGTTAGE

Turning to `CCNC(=O)Nc1nc2cc(-c3cnc(C(C)(C)O)nc3)c(F)c([C@H]3CCCO3)c2[nH]1` [SPR719], the midpoint of inhibition, the IC50, lay at 1000 nM.
